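96-well plates; 48 h exposure; 5 concentrations. Endpoints by linear interpolation between flanking doses. Not reached: highest tested concentration assigned. GI50: concentration for 50% inhibition of growth. TGI: total growth inhibition.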
Tests used:
Assay in all cases: NCI-60 cell line screen, 48 h
SK-MEL-2 melanoma = system: SK-MEL-2 melanoma
SK-MEL-28 melanoma = system: SK-MEL-28 melanoma
ACHN renal = system: ACHN renal
OVCAR-3 ovarian = system: OVCAR-3 ovarian
UO-31 renal = system: UO-31 renal
786-0 renal = system: 786-0 renal
IGROV1 ovarian = system: IGROV1 ovarian
PC-3 prostate = system: PC-3 prostate
SW-620 colon = system: SW-620 colon
NCI-H522 lung = system: NCI-H522 lung
HOP-92 NSCLC = system: HOP-92 NSCLC
LOX IMVI melanoma = system: LOX IMVI melanoma
MCF7 breast = system: MCF7 breast
MOLT-4 leukemia = system: MOLT-4 leukemia
HCC-2998 colon = system: HCC-2998 colon
SN12C renal = system: SN12C renal
TK-10 renal = system: TK-10 renal
U251 CNS = system: U251 CNS
CAKI-1 renal = system: CAKI-1 renal
OVCAR-8 ovarian = system: OVCAR-8 ovarian
HT29 colon = system: HT29 colon
SR leukemia = system: SR leukemia
OVCAR-4 ovarian = system: OVCAR-4 ovarian
HL-60(TB) leukemia = system: HL-60(TB) leukemia
NCI-H23 lung = system: NCI-H23 lung
MDA-MB-435 = system: MDA-MB-435
COLO 205 colon = system: COLO 205 colon
T-47D breast = system: T-47D breast
RPMI-8226 leukemia = system: RPMI-8226 leukemia
SF-539 CNS = system: SF-539 CNS
MALME-3M melanoma = system: MALME-3M melanoma
KM12 colon = system: KM12 colon
EKVX NSCLC = system: EKVX NSCLC
SF-268 CNS = system: SF-268 CNS
HCT-15 colon = system: HCT-15 colon
SK-OV-3 ovarian = system: SK-OV-3 ovarian
UACC-62 melanoma = system: UACC-62 melanoma
SF-295 CNS = system: SF-295 CNS
M14 melanoma = system: M14 melanoma
OVCAR-5 ovarian = system: OVCAR-5 ovarian
K-562 leukemia = system: K-562 leukemia
A498 renal = system: A498 renal
CCRF-CEM leukemia = system: CCRF-CEM leukemia
MDA-MB-231 breast = system: MDA-MB-231 breast
SK-MEL-5 melanoma = system: SK-MEL-5 melanoma
SNB-75 CNS = system: SNB-75 CNS
SNB-19 CNS = system: SNB-19 CNS
NCI/ADR-RES ovarian = system: NCI/ADR-RES ovarian
NCI-H460 lung = system: NCI-H460 lung
HCT-116 colon = system: HCT-116 colon
DU-145 prostate = system: DU-145 prostate
NCI-H226 lung = system: NCI-H226 lung
BT-549 breast = system: BT-549 breast
UACC-257 melanoma = system: UACC-257 melanoma
RXF 393 renal = system: RXF 393 renal
A549 NSCLC = system: A549 NSCLC
HOP-62 NSCLC = system: HOP-62 NSCLC
HS 578T breast = system: HS 578T breast

CCN(Cc1cccc(C)c1)c1ccc(CO)c(Cl)c1
GI50 (SK-MEL-2 melanoma): 5.77 µM
TGI (SK-MEL-2 melanoma): 21.8 µM
GI50 (SK-MEL-28 melanoma): 15.1 µM
TGI (SK-MEL-28 melanoma): 39.5 µM
GI50 (ACHN renal): 14.6 µM
TGI (ACHN renal): 29.1 µM
GI50 (OVCAR-3 ovarian): 1.5 µM
TGI (OVCAR-3 ovarian): 8.77 µM
GI50 (UO-31 renal): 6.47 µM
TGI (UO-31 renal): 20.6 µM
GI50 (786-0 renal): 10.8 µM
TGI (786-0 renal): 23.5 µM
GI50 (IGROV1 ovarian): 0.152 µM
TGI (IGROV1 ovarian): 1.18 µM
GI50 (PC-3 prostate): 12.6 µM
TGI (PC-3 prostate): 26.1 µM
GI50 (SW-620 colon): 2.33 µM
TGI (SW-620 colon): 18 µM
GI50 (NCI-H522 lung): 13.2 µM
TGI (NCI-H522 lung): 27.5 µM
GI50 (HOP-92 NSCLC): 2.16 µM
TGI (HOP-92 NSCLC): 13.5 µM
GI50 (LOX IMVI melanoma): 13.2 µM
TGI (LOX IMVI melanoma): 26.6 µM
GI50 (MCF7 breast): 0.366 µM
TGI (MCF7 breast): 11.1 µM
GI50 (MOLT-4 leukemia): 18.5 µM
TGI (MOLT-4 leukemia): > 64.3 µM
GI50 (HCC-2998 colon): 12.1 µM
TGI (HCC-2998 colon): 25.4 µM
GI50 (SN12C renal): 12.1 µM
TGI (SN12C renal): 26.3 µM
GI50 (TK-10 renal): 0.113 µM
TGI (TK-10 renal): 0.36 µM
GI50 (U251 CNS): 2.27 µM
TGI (U251 CNS): 16.8 µM
GI50 (CAKI-1 renal): 1.31 µM
TGI (CAKI-1 renal): 14.7 µM
GI50 (OVCAR-8 ovarian): 12.3 µM
TGI (OVCAR-8 ovarian): 28.3 µM
GI50 (HT29 colon): 4.12 µM
TGI (HT29 colon): 16.2 µM
GI50 (SR leukemia): 21.6 µM
TGI (SR leukemia): > 62 µM
GI50 (OVCAR-4 ovarian): 0.618 µM
TGI (OVCAR-4 ovarian): 8.22 µM
GI50 (HL-60(TB) leukemia): 14.1 µM
TGI (HL-60(TB) leukemia): 41.1 µM
GI50 (NCI-H23 lung): 10.1 µM
TGI (NCI-H23 lung): 25.5 µM
GI50 (MDA-MB-435): 15.7 µM
TGI (MDA-MB-435): 32.1 µM
GI50 (COLO 205 colon): 2.53 µM
TGI (COLO 205 colon): 6.92 µM
GI50 (T-47D breast): 0.294 µM
TGI (T-47D breast): 1.81 µM
GI50 (RPMI-8226 leukemia): 6.2 µM
TGI (RPMI-8226 leukemia): 31.2 µM
GI50 (SF-539 CNS): 17.3 µM
TGI (SF-539 CNS): 32.4 µM
GI50 (MALME-3M melanoma): 15.7 µM
TGI (MALME-3M melanoma): 33.4 µM
GI50 (KM12 colon): 13.9 µM
TGI (KM12 colon): 27.8 µM
GI50 (EKVX NSCLC): 14.6 µM
TGI (EKVX NSCLC): 30 µM
GI50 (SF-268 CNS): 16.2 µM
TGI (SF-268 CNS): 31.1 µM
GI50 (HCT-15 colon): 12.1 µM
TGI (HCT-15 colon): 33.1 µM
GI50 (SK-OV-3 ovarian): 11.7 µM
TGI (SK-OV-3 ovarian): 29.5 µM
GI50 (UACC-62 melanoma): 0.158 µM
TGI (UACC-62 melanoma): 1.11 µM
GI50 (SF-295 CNS): 1.51 µM
TGI (SF-295 CNS): 16.4 µM
GI50 (M14 melanoma): 14.3 µM
TGI (M14 melanoma): 29.8 µM
GI50 (OVCAR-5 ovarian): 0.245 µM
TGI (OVCAR-5 ovarian): 1.04 µM
GI50 (K-562 leukemia): 3.98 µM
TGI (K-562 leukemia): 44.6 µM
GI50 (A498 renal): 0.0362 µM
TGI (A498 renal): 0.162 µM
GI50 (CCRF-CEM leukemia): 15.6 µM
TGI (CCRF-CEM leukemia): 39.8 µM
GI50 (MDA-MB-231 breast): 14.1 µM
TGI (MDA-MB-231 breast): 30.8 µM
GI50 (SK-MEL-5 melanoma): 9.25 µM
TGI (SK-MEL-5 melanoma): 22 µM
GI50 (SNB-75 CNS): 13.1 µM
TGI (SNB-75 CNS): 37.5 µM
GI50 (SNB-19 CNS): 15.8 µM
TGI (SNB-19 CNS): 41 µM
GI50 (NCI/ADR-RES ovarian): 11.3 µM
TGI (NCI/ADR-RES ovarian): 24.5 µM
GI50 (NCI-H460 lung): 0.513 µM
TGI (NCI-H460 lung): 14.5 µM
GI50 (HCT-116 colon): 0.203 µM
TGI (HCT-116 colon): 10.7 µM
GI50 (DU-145 prostate): 14.8 µM
TGI (DU-145 prostate): 28.9 µM
GI50 (NCI-H226 lung): 0.121 µM
TGI (NCI-H226 lung): 0.252 µM
GI50 (BT-549 breast): 13.4 µM
TGI (BT-549 breast): 27.2 µM
GI50 (UACC-257 melanoma): 0.188 µM
TGI (UACC-257 melanoma): 0.525 µM
GI50 (RXF 393 renal): 6.52 µM
TGI (RXF 393 renal): 21.9 µM
GI50 (A549 NSCLC): 4.77 µM
TGI (A549 NSCLC): 20.7 µM
GI50 (HOP-62 NSCLC): 2.55 µM
TGI (HOP-62 NSCLC): 22 µM
GI50 (HS 578T breast): 15.2 µM
TGI (HS 578T breast): 37.7 µM
